Results taken from PMC11873650 (Acta Pharmaceutica Sinica. B, 2024).
pIC50: −log10 of the molar value.

Legend:
[1] = Pharmacokinetics in rats; type: in vivo; conditions: rat, plasma
[2] = system: Pan02 allograft; assay: Pan02 syngeneic model; type: in vivo, C57BL/6 mice; conditions: 100 mg/kg intraperitoneally three times per five days, 26 days
[3] = molecular target: phosphorylated PAK4 (p-PAK4) (Homo sapiens, UniProt O96013); assay: Western blot of PAK4 phosphorylation in MIA PaCa-2 cells; type: cell-based; conditions: for level of p-PAK4: MIA PaCa-2 cells, 1 μmol/L, 72 h
[4] = system: phosphorylated β-Catenin (p-β-Catenin); assay: Western blot of β-Catenin phosphorylation in MIA PaCa-2 cells; type: cell-based, human; conditions: for level of p-β-Catenin: MIA PaCa-2 cells, 1 μmol/L, 72 h
[5] = system: MIA PaCa-2 xenograft; conditions: 100 mg/kg q.d. intraperitoneally

phosphorylated PAK4 (p-PAK4), sequence (O96013 whole entry): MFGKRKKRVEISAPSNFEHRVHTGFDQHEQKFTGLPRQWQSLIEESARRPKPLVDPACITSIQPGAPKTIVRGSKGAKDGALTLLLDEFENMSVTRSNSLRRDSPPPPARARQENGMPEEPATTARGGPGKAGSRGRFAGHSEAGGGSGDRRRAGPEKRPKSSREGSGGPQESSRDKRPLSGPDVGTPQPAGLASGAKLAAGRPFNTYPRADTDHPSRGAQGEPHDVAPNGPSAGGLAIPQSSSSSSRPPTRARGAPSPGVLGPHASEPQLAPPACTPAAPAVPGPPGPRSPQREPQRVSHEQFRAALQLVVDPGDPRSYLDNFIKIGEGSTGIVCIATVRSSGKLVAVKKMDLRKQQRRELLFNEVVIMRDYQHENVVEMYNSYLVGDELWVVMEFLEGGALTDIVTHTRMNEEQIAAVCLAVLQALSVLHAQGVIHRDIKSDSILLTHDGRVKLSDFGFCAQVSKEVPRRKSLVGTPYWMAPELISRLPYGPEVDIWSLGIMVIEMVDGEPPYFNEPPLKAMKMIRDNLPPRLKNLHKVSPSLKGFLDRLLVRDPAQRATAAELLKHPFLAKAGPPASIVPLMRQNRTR

In the case of `Nc1ccc(/C=C/C(=O)NCc2cc3cc(-c4ccc(C(=O)N5CCC(F)(F)CC5)cc4)cc(-c4ccc(F)cc4)c3o2)cn1` [Compound 4], the AUC(0-t) ([1]; iv, 1 mg/kg) was 94400 ng·h/mL, the AUC(0-t) ([1]; po, 3 mg/kg) was 55500 ng·h/mL and the tumor growth inhibition [2] was “modest tumor growth inhibition”. For the same molecule, the pIC50 [3] was 5.72, the pIC50 ([4]; Homo sapiens, MIA PaCa-2, 72 h, read-out: IC50 against p-β-Catenin) was 5.68 and the mortality ([5]; 20-day study) was “two mice”. The “tumor growth inhibition rate (TGI)” value ([5]; 20 days) was 77.8%.

In the case of `Nc1ccc(/C=C/C(=O)N2CCc3c(oc4c(-c5ccc(F)cc5)cc(-c5ccc(C(=O)N6CCC(F)(F)CC6)nn5)cc34)C2)cn1` [Compound 18, (E)-3-(6-Aminopyridin-3-yl)-1-(6-(6-(4,4-difluoropiperidine-1-carbonyl)pyridazin-3-yl)-8-(4-fluorophenyl)-3,4-dihydrobenzofuro[2,3-c]pyridin-2(1H)-yl)prop-2-en-1-one], the “level of p-PAK4” value [3] was “superior to 4” and the “level of p-β-Catenin” value [4] was “superior to 4”.

For `Nc1ccc(/C=C/C(=O)N2CCc3c(oc4c(-c5ccc(F)cc5)cc(-c5ccc(C(=O)N6CCOCC6)nn5)cc34)C2)cn1` [Compound 19, (E)-3-(6-Aminopyridin-3-yl)-1-(8-(4-fluorophenyl)-6-(6-(morpholine-4-carbonyl)pyridazin-3-yl)-3,4-dihydrobenzofuro[2,3-c]pyridin-2(1H)-yl)prop-2-en-1-one], the “level of p-PAK4” value [3] was “superior to 4” and the “level of p-β-Catenin” value [4] was “superior to 4”.
